Assay: xn = mol fraction of the nth substance listed

CCCC[N+](CCCC)(CCCC)CCCC.[Br-] + CCCCCCCCCCCC[N+](C)(C)C.[Br-] + O
viscosity [mPa·s], 100 kPa
Details	x2 = 5.422e-05, x1 = 0.0001802	x2 = 0.0001084, x1 = 0.0001801	x2 = 0.0001626, x1 = 0.0001801	x2 = 0.0002169, x1 = 0.0001801	x2 = 0.0002711, x1 = 0.0001801	x2 = 0.0003252, x1 = 0.0001801	x2 = 0.0003794, x1 = 0.0001801	x2 = 0.0004336, x1 = 0.0001801	x2 = 0.0004878, x1 = 0.0001801	x2 = 0.000542, x1 = 0.0001801
293.15 K	1.056	1.057	1.059	1.061	1.061	1.062	1.062	1.063	1.063	1.063
298.15 K	0.939	0.942	0.943	0.945	0.946	0.946	0.948	0.949	0.95	0.951
303.15 K	0.824	0.825	0.826	0.826	0.827	0.827	0.828	0.828	0.828	0.828
308.15 K	0.742	0.744	0.745	0.746	0.746	0.746	0.747	0.747	0.747	0.747
313.15 K	0.675	0.676	0.677	0.677	0.678	0.678	0.678	0.678	0.678	0.679
318.15 K	0.62	0.621	0.621	0.621	0.622	0.622	0.622	0.622	0.622	0.623

CCCCCC[n+]1ccn(C)c1.[I-] + [I-].[Li+]
101 kPa, frequency 0.03 MHz, x1 = 0.59
Details	electrical conductivity [S/m]
288.1 K	0.000226
293 K	0.000466
298.1 K	0.000891
308.1 K	0.0032
313 K	0.00537
318.1 K	0.00863

viscosity [mPa·s], 101 kPa
Details	298.1 K	303 K	308.1 K	328.1 K	368.1 K
x1 = 0.59	15200	–	4263	–	–
x1 = 1	–	1175	–	213	38.5

CC(=O)[O-].C[NH+]1CCOCC1 + CC(=O)[O-].Cn1cc[nH+]c1
Details	electrical conductivity [S/m]
298.15 K, 100 kPa, x2 = 0.71	0.274

CCCCCC[n+]1ccn(C)c1.O=S(=O)([N-]S(=O)(=O)C(F)(F)F)C(F)(F)F + C1CCOC1
298.15 K, 100 kPa
Details	electrical conductivity [S/m]
x1 = 0.0649	0.9
x1 = 0.09702	1.1
x1 = 0.1393	1
x1 = 0.194	1.3
x1 = 0.2742	0.9

CCCCCC[n+]1ccn(C)c1.O=S(=O)([N-]S(=O)(=O)C(F)(F)F)C(F)(F)F + CO
298.15 K, 100 kPa
Details	electrical conductivity [S/m]
x1 = 0.02978	1.7
x1 = 0.04557	2.1
x1 = 0.06683	2.3
x1 = 0.09663	2.2
x1 = 0.1426	1.9

Cn1ccnc1 + CC(=O)[O-].CC[n+]1ccn(C)c1 + CCOC(C)=O
298.15 K, 101 kPa
Details	electrical conductivity [S/m]	viscosity [mPa·s]
x2 = 0, x1 = 0.5	–	0.93
x2 = 0.09996, x1 = 0.45	0.259	1.32
x2 = 0.2001, x1 = 0.4	0.444	2.05
x2 = 0.3, x1 = 0.35	0.61	3.17
x2 = 0.3995, x1 = 0.3003	0.724	5.06
x2 = 0.5003, x1 = 0.2498	0.795	7.59
x2 = 0.598, x1 = 0.201	0.776	12.8
x2 = 0.7028, x1 = 0.1486	0.697	21.4
x2 = 0.8002, x1 = 0.09992	0.578	37.1
x2 = 0.8978, x1 = 0.0511	0.452	67.4

CC[n+]1ccn(CCOC)c1.O=S(=O)([O-])C(F)(F)F + CCCO
viscosity [mPa·s], 101 kPa
Details	x1 = 0.0987	x1 = 0.1999	x1 = 0.2982	x1 = 0.3994	x1 = 0.499	x1 = 0.599	x1 = 0.698	x1 = 0.801	x1 = 0.899	x1 = 1
288.15 K	4.257	6.11	10	14.17	23.2	31.9	45.2	63.3	88.6	121
293.15 K	3.751	4.78	8.54	12.17	19.23	26.22	36.7	50.5	69.1	92.5
298.15 K	3.282	4.18	7.36	10.61	16.22	21.94	30.16	41	55.3	72.5
303.15 K	2.914	3.72	6.41	9.35	13.09	18.61	25.17	33.69	44.8	57.9
308.15 K	2.594	3.59	5.63	8.33	11.23	15.98	21.29	28.1	36.86	47.3
313.15 K	2.321	3.205	4.98	7.49	10.09	13.81	18.34	23.8	30.74	39
318.15 K	2.086	3.097	4.43	6.8	8.6	12	15.84	20.29	25.97	32.59

O=C1c2ccccc2C(=O)C1(O)O + CCCC[N+](CCCC)(CCCC)CCCC.O=S(=O)([O-])O
100 kPa, x2 = 0.571
Details	electrical conductivity [S/m]	viscosity [mPa·s]
293.15 K	2.5e-06	–
298.15 K	7.8e-06	–
303.15 K	2.49e-05	–
308.15 K	6.58e-05	–
313.15 K	0.000153	–
318.15 K	0.000325	–
323.15 K	0.000614	–
328.15 K	0.00109	27000
333.15 K	0.00183	–
343.15 K	–	6500

NCCO + CCCC[n+]1ccn(C)c1.O=[N+]([O-])[O-] + O
Details	viscosity [mPa·s]
313 K, 100 kPa, x2 = 0, x3 = 0.8878	1.963

CCCCCC[n+]1ccn(C)c1.O=S(=O)([N-]S(=O)(=O)C(F)(F)F)C(F)(F)F + CC#N
298.15 K, 100 kPa
Details	electrical conductivity [S/m]
x1 = 0.03801	3.3
x1 = 0.0581	3.7
x1 = 0.08404	4
x1 = 0.1205	3.6
x1 = 0.1763	2.8

CC(C)C[C@H](N)C(=O)[O-].CCCC[P+](CCCC)(CCCC)CCCN + O
333.15 K, 101 kPa, x2 = 0
Details	electrical conductivity [S/m]	viscosity [mPa·s]
–	0.0413	130.5

OC[C@H]1O[C@@H](O[C@H]2[C@H](O)[C@@H](O)C(O)O[C@@H]2CO)[C@H](O)[C@@H](O)[C@@H]1O (some centres undefined) + CC(=O)[O-].CC[n+]1ccn(C)c1
100 kPa
Details	viscosity [mPa·s]
292.4 K, x1 = 0.0255	339
302.1 K, x1 = 0.08067	921
312.5 K, x1 = 0.004998	61
312.5 K, x1 = 0.01515	73
322.6 K, x1 = 0.01515	45
322.6 K, x1 = 0.08067	207
332.2 K, x1 = 0.0255	39
332.2 K, x1 = 0.08067	123
342.5 K, x1 = 0.004998	20

Source: the CheMixHub ionic liquid set
